Measurements taken from PMC7563222, “Recognition of Dimeric Lewis X by Anti-Dimeric Le^x Antibody SH2” (Vaccines, 2020).
Where two headings read alike, the source gives them in different places.

Tests used:
mAb SH2 [1] = test: Indirect titration ELISA of SH2 ascites against coated glycoconjugates; format: binding, mouse; conditions: antigens coated at 10 μg/mL; 2 and 5 also at 20 µg/mL (not shown)
Description: MaxiSorp NUNC 96-well enzyme-linked immunosorbent assay (ELISA) microtiter plate (Thermo Fisher Scientific) was coated with a dilution of glycoconjugates 1–5 and BSA (100 μL per well, […]) in a 10 mM phosphate-buffered saline (PBS) solution at pH 7.1. The plate was covered with sealing tape and incubated at 4 °C overnight. The antigen solution was discarded, and the plate was washed (using ELx405 auto plate washer, 5 × 15 s) with a 10 mM PBS buffer at pH 7.3 containing 0.05% Tween 20. The plate was blocked with 0.05% skim milk in 10 mM PBS (300 μL per well) and incubated for 1 h at 37 °C. The plate was then washed with 10 mM PBS-0.05% Tween 20. A 1:100 dilution of SH2 ascites was prepared and 146 μL of the dilution was distributed in the wells corresponding to the primary dilution. All other wells received 100 μL of the 10 mM PBS-0.05% Tween 20 pH 7.3 buffer. In-plate serial dilutions were performed in which 46 μL of the primary dilution was pipetted downward along the rows. The well contents were mixed by rinsing the pipette tips (7×). Lastly, 46 μL of the mAb solution was removed and discarded from the wells, which received the final solution of mAb (final volume in all wells, 100 μL). The last row of the 96-well plate was used as the blank control. MAb SH2 ascites were not pipetted into these wells, rather 100 μL of 10 mM PBS-0.05% Tween 20 was added. The plate was incubated for 2 h at 23 °C (in the dark). The plate was subsequently washed using the plate washer with PBS-0.05% Tween 20. A dilution of commercially available horseradish peroxidase labeled goat anti-mouse antibody (Mandel Scientific) (1:5000 in 10 mM PBS-0.05% Tween 20, 100 μL per well) was added to each well. After 1 h of incubation at 23 °C (in the dark), the plate was washed with PBS-0.05% Tween 20. A solution of the chromogenic substrate 3,3′,5,5′-tetramethylbenzidine (TMB) (Mandel Scientific) (100 μL per well) was added. After a 10 min incubation period at 23 °C (in the dark), 100 μL of 5% Phosphoric Acid stop solution was added to the wells to quench the reaction. The absorbance values were read at 450 nm employing a PowerWave XS plate reader. All samples were prepared in triplicate. The absorbance values were plotted against an increasing serum dilution. The values were fitted to a 4-parameter logistics sigmoidal equation: y = y0 + a/[1 + (x/x0)^b] using Sigma Plot®® 10.0.

mAb SH2 [2] = test: Competitive ELISA: inhibition of mAb SH2 binding to immobilized (DimLe^x)16-BSA conjugate 1; parameters: species or system mouse; conditions: for IC50: DimLe^x-BSA conjugate 1 immobilized (5 μg/mL), SH2 ascites 1:500; for SH2 ∆(∆G): reference inhibitor Le^x 7, --- = No inhibition; for SH2 ∆(∆G) / ∆(∆G): T = 296 K; for ∆(∆G): RT ln([I1]/[I2]), reference inhibitor DimLe^x 6
Description: A MaxiSorp NUNC 96-well ELISA microtiter plate was coated with a dilution of the (DimLe^x)16-BSA conjugate 1 (100 μL per well, 5 μg/mL) in a 10 mM PBS solution at pH 7.1. The plate was covered with sealing tape and incubated at 4 °C overnight. The antigen solution was discarded, and the plate was washed (using ELx405 auto plate washer, 5 × 15 s) with a 10 mM PBS buffer at pH 7.3 containing 0.05% Tween 20. In 1.5 mL Eppendorf tubes, 175 μL dilutions of competitors (concentration ranging from 0.632 mg/mL to 2 mg/mL in 10 mM PBS-0.05% Tween 20) were incubated for 1 h at 23 °C (in the dark) with 175 μL of a solution of SH2 ascites (1:500 dilution in 10 mM PBS-0.05% Tween 20). At the same time, the plate was blocked with 0.05% skim milk in PBS (300 μL per well). After 1 h of incubation at 37 °C, the plate was washed with 10 mM PBS-0.05% Tween 20. Each well then received 100 μL of the competitor-mAb mixture. Three wells were used as the blank control in which the competitor-mAb mixture was not added, rather received 100 μL of 10 mM PBS-0.05% Tween 20. The plate was incubated for 3 h at 23 °C (in the dark). The plate was subsequently washed using the plate washer with PBS-0.05% Tween 20. A dilution of commercially available horseradish peroxidase labeled goat anti-mouse antibody (1:5000 in 10 mM PBS-0.05% Tween 20, 100 μL per well) was added to each well. After 1 h of incubation at 23 °C (in the dark), the plate was washed with 10 mM PBS-0.05% Tween 20. A solution of the chromogenic substrate TMB (100 μL per well) was added. After a 10 min incubation period at 23 °C (in the dark), 100 μL of 5% Phosphoric Acid stop solution was added to the wells to quench the reaction. The absorbance values were read at 450 nm employing a PowerWave XS plate reader. All samples were prepared in triplicate. The absorbance values were plotted as the percentage inhibition against an increasing concentration of competitor, calculated using wells containing no competitor as the reference point. The values were fitted to a 4-parameter logistics sigmoidal equation: y = y0 + a/[1 + (x/x0)^b] using Sigma Plot 10.0. The concentration of each analogue required for 50% inhibition (IC50) of Le^x-SH2 binding and the corresponding changes in free energy Δ(ΔG) of binding (kcal·mol^−1) using DimLe^xOPr 6 (Table 1) or Le^xOMe 7 (Table 2) as the reference were calculated.

mAb SH1 = conditions: cited from earlier work; for SH1 ∆(∆G): Le^x-BSA conjugate 4 immobilized, Le^x trisaccharide 7 as reference, --- = No inhibition
mAb 1G5F6 = system: mAb 1G5F6; parameters: method as in PMID 31666308; conditions: DimLe^x-BSA conjugate 1 immobilized; Le^x trisaccharide 7 as reference; --- = No inhibition; cited from earlier work
[3] = Table 1, read-out: IC50 (concentration of inhibitor required for 50% inhibition)

Row | Molecule | SH1 ∆(∆G) (mAb SH1) [kcal/mol] | 1G5F6 ∆(∆G) (mAb 1G5F6) [kcal/mol] | IC50 (mAb SH2 [2]; Table 2, read-out: SH2 IC50) [µM] | SH2 ∆(∆G) (mAb SH2 [2]; Table 2) [kcal/mol] | other results
1 | (GDimLe^x)16-BSA [compound 5] | – | – | – | – | Binding of SH2 to coated antigen (titration, in words) (mAb SH2 [1]): no binding
2 | CCCCCCO[C@@H]1O[C@H](CO)[C@@H](O[C@@H]2O[C@H](CO)[C@H](O)[C@H](O[C@@H]3O[C@H](CO)[C@@H](O[C@@H]4O[C@H](CO)[C@H](O)[C@H](O)[C@H]4O)[C@H](O)[C@H]3NC(C)=O)[C@H]2O)[C@H](O[C@@H]2O[C@@H](C)[C@@H](O)[C@@H](O)[C@@H]2O)[C@H]1NC(C)=O [compound 13, LacNAc[1,3″]Lex] | – | – | – | – | Inhibition of SH2 binding to (DimLe^x)16-BSA by soluble oligosaccharide (in words) (mAb SH2 [2]): lack of competitive binding
3 | CO[C@@H]1O[C@H](CO)[C@@H](O[C@@H]2O[C@H](CO)C[C@H](O)[C@H]2O)[C@H](O[C@@H]2O[C@@H](C)[C@@H](O)[C@@H](O)[C@@H]2O)[C@H]1O [compound 20, 4″-HLe^x] | 1.3 | 0.3 | 74 | 0.3 | –
4 | CO[C@@H]1O[C@H](CO)[C@@H](O[C@@H]2O[C@H](CO)[C@H](O)[C@H](O)[C@H]2O)[C@H](O[C@@H]2O[C@@H](C)[C@H](O)[C@@H](O)[C@H]2O)[C@H]1O [compound 18, RhaLac] | 1.5 | 3.2 | > 1800 | – | Inhibition of SH2 binding to (DimLe^x)16-BSA by soluble oligosaccharide (in words) (mAb SH2 [2]): no inhibition
5 | (Le^x)10-BSA [compound 3] | – | – | – | – | Binding of SH2 to coated antigen (titration, in words) (mAb SH2 [1]): no binding; Inhibition of SH2 binding to (DimLe^x)16-BSA by glycoconjugates as soluble inhibitors (in words) (mAb SH2 [2]; (DimLe^x)16-BSA 1 immobilized, SH2 serum dilution 1:500 (Figure 5)): did not
6 | CO[C@@H]1O[C@H](CO)[C@@H](O[C@@H]2O[C@H](CO)[C@H](O)[C@H](O)[C@H]2O)[C@H](O[C@@H]2O[C@@H](C)[C@@H](O)[C@@H](O)[C@@H]2O)[C@H]1NC(C)=O [compound 7, Le^x methyl glycoside] | 0 | 0 | – | 0 | IC50 (mAb SH2 [2]; [3]): 47 µM; ∆(∆G) (mAb SH2 [2]; Table 1): -1.4 kcal/mol
7 | COC1OC(CO)C(OC2OC(CO)C(O)C(O)C2O)C(OC2OC(C)C(O)C(O)C2O)C1NC(C)=O (stereo not drawn) [compound 16, GlcLe^x] | – | 2.7 | > 1800 | – | Binding by SH1 (in words) (mAb SH1; galactose of Le^x replaced by glucose): total loss of binding; Inhibition of SH2 binding to (DimLe^x)16-BSA by soluble oligosaccharide (in words) (mAb SH2 [2]): no inhibition
8 | CO[C@@H]1O[C@H](CO)[C@@H](O[C@@H]2O[C@H](CO)[C@H](O)[C@H](O[C@@H]3O[C@H](CO)[C@@H](O)[C@H](O)[C@H]3NC(C)=O)[C@H]2O)[C@H](O[C@@H]2O[C@@H](C)[C@@H](O)[C@@H](O)[C@@H]2O)[C@H]1NC(C)=O [compound 10, GlcNAc[1,3″]Le^x] | – | – | – | – | IC50 (mAb SH2 [2]; [3]): 18600 µM; ∆(∆G) (mAb SH2 [2]; Table 1): 2.1 kcal/mol
9 | CO[C@@H]1O[C@H](CO)[C@@H](O[C@@H]2O[C@H](CO)[C@H](F)[C@H](O)[C@H]2O)[C@H](O[C@@H]2O[C@@H](C)[C@@H](O)[C@@H](O)[C@@H]2O)[C@H]1O [compound 22, 4″-FLe^x] | 2.1 | -0.1 | 17 | -0.6 | –
10 | CO[C@@H]1O[C@H](CO)[C@@H](O[C@@H]2O[C@H](CO)[C@H](O)[C@H](O)[C@H]2O)[C@H](O[C@@H]2O[C@@H](C)[C@H](O)[C@@H](O)[C@H]2O)[C@H]1NC(C)=O [compound 17, RhaLe^x] | 1.1 | 1.6 | 827 | 1.7 | –
11 | CO[C@@H]1O[C@H](CO)[C@@H](O[C@@H]2O[C@H](CO)[C@H](Cl)[C@H](O)[C@H]2O)[C@H](O[C@@H]2O[C@@H](C)[C@@H](O)[C@@H](O)[C@@H]2O)[C@H]1O [compound 21, 4″-ClLe^x] | 1.6 | 0.3 | 19 | -0.5 | –
12 | CO[C@@H]1O[C@H](CO)[C@@H](O[C@@H]2O[C@H](CO)[C@H](OC)[C@H](O)[C@H]2O)[C@H](O[C@@H]2O[C@@H](C)[C@@H](O)[C@@H](O)[C@@H]2O)[C@H]1O [compound 19] | – | – | 148 | 0.7 | –
13 | bovine serum albumin [BSA, reference compound] | – | – | – | – | Binding of SH2 to coated antigen (titration, in words) (mAb SH2 [1]): no affinity
14 | CC(=O)NC1C(OC2C(O)C(O)OC(CO)C2O)OC(CO)C(OC2OC(CO)C(O)C(O)C2O)C1OC1OC(C)C(O)C(O)C1O (stereo not drawn) [compound 9, Lex[1,3]Gal, reference compound] | – | – | – | – | IC50 (mAb SH2 [2]; [3]): 529 µM; ∆(∆G) (mAb SH2 [2]; Table 1): 0.03 kcal/mol
15 | CCCCCO[C@@H]1O[C@H](CO)[C@@H](O[C@@H]2O[C@H](CO)[C@H](O)[C@H](O[C@@H]3O[C@H](CO)[C@@H](O)[C@H](O[C@@H]4O[C@@H](C)[C@@H](O)[C@@H](O)[C@@H]4O)[C@H]3NC(C)=O)[C@H]2O)[C@H](O[C@@H]2O[C@@H](C)[C@@H](O)[C@@H](O)[C@@H]2O)[C@H]1NC(C)=O [compound 14, Fuc[1,3,]GlcNAc[1,3″]Le^x] | – | – | – | – | Inhibition of SH2 binding to (DimLe^x)16-BSA by soluble oligosaccharide (in words) (mAb SH2 [2]): lack of competitive binding
16 | CO[C@@H]1O[C@H](CO)[C@@H](O[C@@H]2O[C@H](CO)[C@H](O)[C@H](O)[C@H]2O)[C@H](O[C@@H]2O[C@@H](C)[C@@H](O)[C@@H](O)[C@@H]2O)[C@H]1O [compound 15, LacLe^x] | 0.2 | 2.5 | > 1800 | – | Inhibition of SH2 binding to (DimLe^x)16-BSA by soluble oligosaccharide (in words) (mAb SH2 [2]): no inhibition
17 | CCCO[C@@H]1O[C@H](CO)[C@@H](O[C@@H]2O[C@H](CO)[C@H](O)[C@H](O[C@@H]3O[C@H](CO)[C@@H](O[C@@H]4O[C@H](CO)[C@H](O)[C@H](O)[C@H]4O)[C@H](O[C@@H]4O[C@@H](C)[C@@H](O)[C@@H](O)[C@@H]4O)[C@H]3NC(C)=O)[C@H]2O)[C@H](O[C@@H]2O[C@@H](C)[C@@H](O)[C@@H](O)[C@@H]2O)[C@H]1NC(C)=O [compound 6, DimLe^x propyl hexasaccharide] | – | – | – | – | IC50 (mAb SH2 [2]; [3]): 503 µM; ∆(∆G) (mAb SH2 [2]; Table 1): 0 kcal/mol
18 | (DimLe^x)6-TT [compound 2] | – | – | – | – | Binding of SH2 to coated antigen (titration, in words) (mAb SH2 [1]): very little binding
